According to patent US7560473B2 (Institute of Pharmacology and Toxicology Academy of …, priority 2001, dated 2009):

Legend:
[1] = molecular target: T1, ATP-sensitive potassium channels in vascular smooth muscles (Rattus norvegicus, UniProt Q63563); assay: Association and dissociation kinetics of [^3H]glibenclamide binding in aortic rings; design: species or system Wistar rat; settings: drug M: compound 1 10^−4, pinacidil 10^−4, ATP 10^−2, ADP 10^−3, UDP 5 × 10^−3, Ade 10^−3; for Dissociation kinetics k2 of [^3H]glibenclamide binding / Association kinetics k1 of [^3H]glibenclamide binding / Association kinetics kobs of [^3H]glibenclamide binding / Association kinetics kA of [^3H]glibenclamide binding: 25° C.; for Dissociation kinetics k2 of [^3H]glibenclamide binding: control 0.72 ± 0.11; for Dissociation kinetics Kd of [^3H]glibenclamide binding in presence of the drug: Kd of the radioligand, not of the drug, control 0.55 ± 0.14; for Association kinetics k1 of [^3H]glibenclamide binding / Association kinetics kobs of [^3H]glibenclamide binding / Association kinetics kA of [^3H]glibenclamide binding: [^3H]-glibenclamide 3 nM; for Association kinetics k1 of [^3H]glibenclamide binding: control 1.31 ± 0.14; for Association kinetics kobs of [^3H]glibenclamide binding: control 4.65 ± 0.37, means ± SD, n = 4~10; for Association kinetics kA of [^3H]glibenclamide binding: control 181.90 ± 46.90
T1 construct: The aorta was cut into about 3-5 mm arterial rings and the vascular endothelium was scraped off; from tissue; host or cells: endothelium-removed aortic rings of male Wistar rats
T1 sequence (Q63563 1-1545 isoform Q63563-2): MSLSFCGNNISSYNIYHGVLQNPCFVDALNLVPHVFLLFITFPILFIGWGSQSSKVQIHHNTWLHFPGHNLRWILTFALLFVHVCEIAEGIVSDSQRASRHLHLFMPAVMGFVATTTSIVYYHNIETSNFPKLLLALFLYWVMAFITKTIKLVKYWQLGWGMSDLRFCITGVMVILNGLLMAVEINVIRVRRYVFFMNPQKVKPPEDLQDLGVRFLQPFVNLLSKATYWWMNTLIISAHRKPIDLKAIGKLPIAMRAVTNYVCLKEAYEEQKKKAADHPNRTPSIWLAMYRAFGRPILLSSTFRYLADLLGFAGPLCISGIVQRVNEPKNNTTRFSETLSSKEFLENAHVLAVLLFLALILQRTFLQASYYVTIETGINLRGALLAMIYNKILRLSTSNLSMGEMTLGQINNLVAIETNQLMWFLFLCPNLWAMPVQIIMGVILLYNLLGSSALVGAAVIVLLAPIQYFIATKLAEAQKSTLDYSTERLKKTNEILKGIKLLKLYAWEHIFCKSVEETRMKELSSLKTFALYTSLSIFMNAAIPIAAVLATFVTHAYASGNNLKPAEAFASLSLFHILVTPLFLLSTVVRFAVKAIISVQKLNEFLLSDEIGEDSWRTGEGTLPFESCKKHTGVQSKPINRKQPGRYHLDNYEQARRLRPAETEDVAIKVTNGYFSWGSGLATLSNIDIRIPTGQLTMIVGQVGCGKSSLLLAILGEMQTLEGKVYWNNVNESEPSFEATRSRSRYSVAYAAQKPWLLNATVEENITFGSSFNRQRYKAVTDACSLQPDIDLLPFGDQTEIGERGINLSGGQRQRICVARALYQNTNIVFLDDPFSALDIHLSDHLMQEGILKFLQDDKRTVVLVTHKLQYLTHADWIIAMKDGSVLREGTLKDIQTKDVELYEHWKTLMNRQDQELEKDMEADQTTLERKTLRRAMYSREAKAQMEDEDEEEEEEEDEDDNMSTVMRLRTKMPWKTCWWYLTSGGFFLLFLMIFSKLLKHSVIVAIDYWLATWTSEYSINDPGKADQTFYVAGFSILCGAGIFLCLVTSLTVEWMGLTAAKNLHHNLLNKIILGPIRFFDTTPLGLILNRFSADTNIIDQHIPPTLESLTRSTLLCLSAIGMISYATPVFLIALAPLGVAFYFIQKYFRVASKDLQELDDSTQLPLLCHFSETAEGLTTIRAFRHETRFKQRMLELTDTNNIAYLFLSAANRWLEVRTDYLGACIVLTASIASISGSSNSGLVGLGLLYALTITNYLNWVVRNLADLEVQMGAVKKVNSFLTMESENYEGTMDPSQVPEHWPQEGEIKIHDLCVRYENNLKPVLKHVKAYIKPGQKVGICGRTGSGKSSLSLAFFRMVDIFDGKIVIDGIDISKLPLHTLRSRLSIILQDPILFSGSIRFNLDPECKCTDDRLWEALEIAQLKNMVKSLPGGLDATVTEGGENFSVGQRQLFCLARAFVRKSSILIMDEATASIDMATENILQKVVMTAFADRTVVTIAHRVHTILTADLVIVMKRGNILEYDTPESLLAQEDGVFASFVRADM
T1 sequence (Q63664 whole entry partner): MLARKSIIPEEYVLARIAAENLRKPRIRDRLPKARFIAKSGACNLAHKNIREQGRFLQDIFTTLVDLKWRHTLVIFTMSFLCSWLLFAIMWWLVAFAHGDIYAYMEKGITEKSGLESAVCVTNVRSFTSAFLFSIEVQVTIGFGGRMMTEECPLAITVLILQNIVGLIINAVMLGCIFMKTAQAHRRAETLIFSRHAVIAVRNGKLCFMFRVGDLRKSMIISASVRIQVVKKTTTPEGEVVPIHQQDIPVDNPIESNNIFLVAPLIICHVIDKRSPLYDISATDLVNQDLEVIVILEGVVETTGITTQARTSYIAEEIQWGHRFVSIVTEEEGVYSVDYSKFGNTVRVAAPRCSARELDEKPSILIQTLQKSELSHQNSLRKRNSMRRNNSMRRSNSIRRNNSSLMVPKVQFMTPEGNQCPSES
Excerpt: (§1) Biological activity experiment 4. Allosteric regulation of novel compounds on ATP-sensitive potassium channels in vascular smooth muscles.
(§2) To study the allosteric regulation of compound 1 on ATP-sensitive potassium channels in vascular smooth muscles, the radio-labled-ligand was used in the biological activity experiment 4.
1. The allosteric regulation of compound 1 on the binding sites for the selective KATP blocker glibenclamide in vascular smooth muscles was studied as follows: After decapitated, the male Wistar rat (340±20 g) was immediately incised open the thoracic cavity. The aorta was dissected and immersed in the 4° C. buffer containing 10 mM HEPES to wash off the blood, then carefully extirpated the fat, peripheral connective tissues and thrombus. The aorta was cut into about 3-5 mm arterial rings and the vascular endothelium was scraped off with wet tampon. The arterial rings were blotted, weighted and transferred into the tubes containing proper amount of ice colded physiological saline buffer. […] At 5,10,15,20,30,60,90 and 120 min after incubation, 9 mL ice colded Tris buffer (50 mM) was added to terminate the reaction. After washing off the free and bound [^3H]-glibenclamide, the aorta was blotted, transferred to a scintillator, added 50 uL 30% H2O2 and reacted for 2 h at 80° C. After cooling, 2.5 mL ethyl glycol and 5 mL 1% B-BPD xylene were added in sequence, kept stationary for 8 h and measured under a scintillometer for cpm value. The resulting data were fit into a regression line with In[BEQ/(BEQ-Bt)]vs.t and the parameters for association kinetics were obtained. In the disassociation kinetics experiments, the aorta treated as described above and [^3H]-glibenclamide were incubated for 60 min at 25° C., and then 30 uM glibenclamide was added. 0,5,15,30,60,90 and 120 min later, the cpm values for the complex of [^3H]-glibenclamide and KATP were measured. The resulting data were fit into a regression line with In(B/BEQ)]vs.t and the parameters for disassociation kinetics were obtained. 2. The allosteric regulation of compound 1 on the binding sites for the selective KATP activator P1075 in vascular smooth muscles was studied with the method as described above, but some conditions should be changed as follows: the incubation temperature was 37° C. instead of 25° C.;P1075 was used instead of glibenclamide; In the association kinetics experiments, the time points for sampling were 5,10,15,20,30,45,60 and 90 min, while in the disassociation kinetics experiments, that were 1,3,5,10,20,30,45 and 60 min. Biological activity experiment 5. The effects of compound 1 on the specific binding of high selective activator [^3H]P1075 with ATP-sensitive potassium channels in vascular smooth muscles.

[2] = molecular target: T1, ATP-sensitive potassium channels in vascular smooth muscles; assay: Association kinetics of [^3H]P1075 binding in aortic rings; design: species or system Wistar rat; settings: 37° C.; drug M: Compound 1 10^−4, Glibencamide 10^−5, ATP 10^−2, ADP 10^−3, UDP 5 × 10^−5, GTP 10^−3, Ade 10^−3; control 4.36 ± 0.45; means ± SD, n = 4~10
Excerpt: as §1, §2
1. The allosteric regulation of compound 1 on the binding sites for the selective KATP blocker glibenclamide in vascular smooth muscles was studied as follows: After decapitated, the male Wistar rat (340±20 g) was immediately incised open the thoracic cavity. The aorta was dissected and immersed in the 4° C. buffer containing 10 mM HEPES to wash off the blood, then carefully extirpated the fat, peripheral connective tissues and thrombus. The aorta was cut into about 3-5 mm arterial rings and the vascular endothelium was scraped off with wet tampon. The arterial rings were blotted, weighted and transferred into the tubes containing proper amount of ice colded physiological saline buffer. In the association kinetics experiment, the arterial circles in the tubes were incubated with, compound 1(10^−4M), pinacidil(10^−4M), ATP(10^−2M), ADP(10^−3M), Ade(10^−3M), […] and equal volume of buffer respectively for 10 min in 25° C. water bath, and then added [^3H]-glibenclamide(3 nM). At 5,10,15,20,30,60,90 and 120 min after incubation, 9 mL ice colded Tris buffer (50 mM) was added to terminate the reaction. After washing off the free and bound [^3H]-glibenclamide, the aorta was blotted, transferred to a scintillator, added 50 uL 30% H2O2 and reacted for 2 h at 80° C. After cooling, 2.5 mL ethyl glycol and 5 mL 1% B-BPD xylene were added in sequence, kept stationary for 8 h and measured under a scintillometer for cpm value. The resulting data were fit into a regression line with In[BEQ/(BEQ-Bt)]vs.t and the parameters for association kinetics were obtained. In the disassociation kinetics experiments, the aorta treated as described above and [^3H]-glibenclamide were incubated for 60 min at 25° C., and then 30 uM glibenclamide was added. 0,5,15,30,60,90 and 120 min later, the cpm values for the complex of [^3H]-glibenclamide and KATP were measured. The resulting data were fit into a regression line with In(B/BEQ)]vs.t and the parameters for disassociation kinetics were obtained. 2. The allosteric regulation of compound 1 on the binding sites for the selective KATP activator P1075 in vascular smooth muscles was studied with the method as described above, but some conditions should be changed as follows: the incubation temperature was 37° C. instead of 25° C.;P1075 was used instead of glibenclamide; In the association kinetics experiments, the time points for sampling were 5,10,15,20,30,45,60 and 90 min, while in the disassociation kinetics experiments, that were 1,3,5,10,20,30,45 and 60 min. Biological activity experiment 5. The effects of compound 1 on the specific binding of high selective activator [^3H]P1075 with ATP-sensitive potassium channels in vascular smooth muscles.

[3] = tested on: rats anesthetized with pentobarbital sodium; assay: Effects on blood pressure, heart rate, cardiac contraction and dilation in rats anesthetized with pentobarbital sodium; type: in vivo, Wistar rats; design: unit not given here; settings: change after injection through femoral vein, '+' = increase, all others = decrease
Protocol: Biological activity experiment 1. The effects of 16 compounds represented by formula I on blood pressure, heart rate, cardiac contraction and dilation in rats anesthetized with pentobarbital sodium.
The methods of biological activity experiment 1 were as follows: Male Wistar rats, weighing 280±30 g were purchased from the experimental animal center of Academy of Military Medical Sciences. Rats were anesthetized with pentobarbital sodium (45 mg/kg) by peritoneal injection. A PE50 polyethylene catheter was inserted into the left ventricle through right carotid artery for cardiac function measurement with a pressure energe exchanger, wherein the signal is put into a SMUP-PC biosignal processing system. Cardiac functional parameters such as HR, LVSP, +dp/dtmax, −dp/dtmax and Vpm were recorded. Another two PE50 polyethylene catheters were inserted into the right femoral artery and vein respectively for blood pressure measurement wherein the artery cathether was linked to a four-channel physiology recorder (RM-6000) through a MPU-0.5A Type pressure energe exchanger, which recorded SBP, DBP and MBP, while the vein catheter was used for compound administration. The methods were described by Liu Wei et al: Liu Wei, Wang Hai, Xiao Wen-Bin. […] Bull Acad Mil Med Sci 1996;20(4):245˜248.

[4] = tested on: outward potassium currents of rat tail arterial SMCs; assay: Whole cell recording of outward potassium currents in rat tail arterial SMCs; type: cell-based, Wistar rats; settings: X ± SD n = 5
Excerpt: Biological activity experiments 6. The effects of novel compounds on potassium currents in isolated arterial vascular smooth muscle cells (SMCs).
The outward currents were, elicited in rat tail arterial SMCs by superfusing extracellular solution under whole cell recording configuration that the depolarizing pulse were applied from −30 mV to +100 mV with the holding potential of −40 mV in 100 ms, 10 mV clamp steps, a frequency of 5 KHz. The compounds were applied in the bath at the concentrations of 100 μmol L^−1. The amplitude of the outward potassium currents was recorded before and after compound application Values were expressed as means±SD. Statistical significance between two groups was evaluated by student's t-test for paired data * P<0.05 **P<0.01 vs control.
1. Preparation of single smooth muscle cells from rat tail arteries: Male Wistar rats (200-250 g) were killed by exsanguination. The tail artery was dissected out and transferred into cold physiological salt solution (PSS) of the following composition (in mM): NaCl 118.3, KCl 4.7, KH2PO4 1.2, MgSO4 1.2, NaHCO3 25.0, CaCl2 2.5, EDTA 0.026 and Glucose 5.0 pH7.4. With the use of a dissecting microscope, the connective tissues were removed and the artery was cut open longitudinally. Endothelium was removed carefully with a cotton swab then the artery was cut into segments with 1 mm long and placed in 4° C. the extracellular solution containing (in mM) NaCl 130, KCl 5, MgCl2 1.2, HEPES 10, Glucose 10, pH7.2 for 20 min. After this incubation, the medium was changed to enzyme solution which was composed of collagenase I (1 mg ml^−1), papain (5 mg ml^−) and bovine serum albumin (2 mg ml^−1). The tissues, were incubated in this solution for 40 min, and then rinsed three times triturated using a fire-polished Pasteur pipette until the medium turned cloudily. The cell suspension was stored in the refrigerator at 4° C.
3. Whole cell recordings: A bath dish with the smooth muscle cells (SMCs) attached and superfused with the extracellular solution at a flow rate of 2 ml min^−1 was mounted onto the stage of an inverted-phase contrast microscope. The microelectrodes having a resistance of (5-8 MΩ) were made from boroscilicate thin-wall glass capillaries, using an automatic multiple-stage, electronic puller (PP830 Japan) and then heat-polished. After establishing a high resistance seal, the patch membrane was disrupted by negative pressure. A commercial patch clamp amplifier (Axon 200B) was used to generate and apply voltages and sample current signals from the cell.

[5] = molecular target: T1, ATP-sensitive potassium channels in vascular smooth muscles; assay: Inhibition of specific binding of [^3H]P1075 in endothelium-removed rat aorta; design: species or system Wistar rat; settings: [^3H] P1075 5 nmol L^−1, 90 minutes at 37° C., endothelium-removed rat aorta
[6] = mean, n = 3~5, doses mg/kg: 2, 8, 12: 10, 3-7, 9-11, 40-44: 5

| Structure (SMILES) | Dissociation kinetics k2 of [^3H]glibenclamide binding [1] | Dissociation kinetics Kd of [^3H]glibenclamide binding in presence of the drug [1] [µM] | Association kinetics k1 of [^3H]glibenclamide binding [1] | Association kinetics kobs of [^3H]glibenclamide binding [1] | Association kinetics kA of [^3H]glibenclamide binding [1] | Association kinetics kobs of [^3H]P1075 binding [2] | other results |
| --- | --- | --- | --- | --- | --- | --- | --- |
| Nc1ncnc2c1ncn2[C@@H]1O[C@H](COP(=O)(O)OP(=O)(O)O)[C@@H](O)[C@H]1O [ADP] | 0.94 ± 0.10 ×10^2 nM^−1 · min^−1 | 0.00209 ± 0.00112 | 0.45 ± 0.24 ×10^−2nM^−1 · min^−1 | 2.28 ± 0.70 ×10^−2nM^−1 · min^−1 | 47.80 ± 25.70 ×10^−2nM^−1 · min^−1 | 2.63 ± 0.48 ×10^−2 nM^−1 · min^−1 | – |
| CCCNC(C)(C)C(C)C [compound 5, N-propyl-2,3-dimethyl-2-butylamine] | – | – | – | – | – | – | MBP: mean blood pressure ([3]; n = 3~5, doses mg/kg: 2, 8, 12: 10, 3-7, 9-11, 40-44: 5): 28; DBP: diastolic blood pressure [3, 6]: 25; HR: heart rate [3, 6]: 78; LVSP: left ventricular systolic pressure [3, 6]: 162; SBP: systolic blood pressure [3, 6]: 34; Vpm: the physiological velocity of contractile element shorting [3, 6]: 0.58; −dp/dtmax: the maximal rate of the decrease of left ventricular pressure [3, 6]: 187; melting point: 183 to 185 °C; Currents, + Compound ([4]; outward potassium current amplitude after compound 100 μmol L^−1 in the bath): 0.67 ± 0.30 nA; Currents, Control (before compound application) ([4]; outward potassium current amplitude before compound application, same cells): 0.65 ± 0.30 nA |
| COc1ccc(Cl)cc1C(=O)NCCc1ccc(S(=O)(=O)NC(=O)NC2CCCCC2)cc1 [glibenclamide, reference compound] | – | – | – | – | – | 3.12 ± 0.17 ×10^−2 nM^−1 · min^−1 | IC50 [5]: 58.9 ± 4.6 µM; Ki ([5]; read-out: pKi for inhibition of specific binding of [^3H]P1075 (converted)): 58.9 µM |

More lines, main results first:

| Dissociation kinetics k2 of [^3H]glibenclamide binding [1] | Dissociation kinetics Kd of [^3H]glibenclamide binding in presence of the drug [1] [µM] | Association kinetics k1 of [^3H]glibenclamide binding [1] | Association kinetics kobs of [^3H]glibenclamide binding [1] | Association kinetics kA of [^3H]glibenclamide binding [1] | Association kinetics kobs of [^3H]P1075 binding [2] | Structure (SMILES) | other results |
| --- | --- | --- | --- | --- | --- | --- | --- |
| 0.42 ± 0.14 ×10^2 nM^−1 · min^−1 | 0.00017 ± 6e-05 | 2.42 ± 0.34 ×10^−2nM^−1 · min^−1 | 7.69 ± 1.01 ×10^−2nM^−1 · min^−1 | 590.2 ± 208.20 ×10^−2nM^−1 · min^−1 | 2.85 ± 0.08 ×10^−2 nM^−1 · min^−1 | Nc1ncnc2c1ncn2[C@@H]1O[C@H](COP(=O)(O)OP(=O)(O)OP(=O)(O)O)[C@@H](O)[C@H]1O [ATP, adenosine triphosphate] | – |
| 0.80 ± 0.22 ×10^2 nM^−1 · min^−1 | 0.0007 ± 0.00024 | 1.15 ± 0.23 ×10^−2nM^−1 · min^−1 | 4.26 ± 0.65 ×10^−2nM^−1 · min^−1 | 143.50 ± 49.00 ×10^−2nM^−1 · min^−1 | 5.53 ± 0.51 ×10^−2 nM^−1 · min^−1 | O=c1ccn([C@@H]2O[C@H](COP(=O)(O)OP(=O)(O)O)[C@@H](O)[C@H]2O)c(=O)[nH]1 [UDP] | – |
